Consider 19 molecules from ChEMBL document CHEMBL1132778, “Synthesis of derivatives of NK109, 7-OH benzo[c]phenanthridine alkaloid, and evaluation of their cytotoxicities and reduction-resistant properties” (Bioorg Med Chem Lett, 2000).

The assay relates to HeLa. As to the kind of experiment: Evaluated for cytotoxicity against HeLa S3 cells. The format is functional, cell-based. The settings on record: Homo sapiens.

As for `C[n+]1cc2c(O)c(OCc3ccccc3)ccc2c2ccc3cc4c(cc3c21)OCO4`, the IC50 came to 17 µM.
Take `CCC[n+]1cc2c(O)c(OC)ccc2c2ccc3cc4c(cc3c21)OCO4`: the IC50 is 0.4 µM.
`C=CCOc1ccc2c(c[n+](C)c3c4cc5c(cc4ccc23)OCO5)c1O` showed a concentration for half-maximal inhibition (IC50) of 0.71 µM.
In turn, `CCCc1c2c(O)c(OC)ccc2c2ccc3cc4c(cc3c2[n+]1C)OCO4` yielded an IC50 of 2.9 µM.
As for `COc1ccc(-c2c3c(O)c(OC)ccc3c3ccc4cc5c(cc4c3[n+]2C)OCO5)cc1`, the IC50 came to 16 µM.
For `CC(=O)OCCOc1ccc2c(c[n+](C)c3c4cc5c(cc4ccc23)OCO5)c1O`, it took 0.48 µM to reach half-maximal inhibition (IC50).
On to `CC[n+]1cc2c(O)c(OC)ccc2c2ccc3cc4c(cc3c21)OCO4`, for which the IC50 came to 0.4 µM.
Under `COC(=O)COc1ccc2c(c[n+](C)c3c4cc5c(cc4ccc23)OCO5)c1O` stands 15 µM; under `C=CC[n+]1cc2c(O)c(OC)ccc2c2ccc3cc4c(cc3c21)OCO4`, 0.76 µM; under `C[n+]1cc2c(O)c(OCC(=O)O)ccc2c2ccc3cc4c(cc3c21)OCO4`, greater than 24 µM.
The result for `CCc1c2c(O)c(OC)ccc2c2ccc3cc4c(cc3c2[n+]1C)OCO4` reads 11 µM; that for `CC(C)Oc1ccc2c(c[n+](C)c3c4cc5c(cc4ccc23)OCO5)c1O`, 2.4 µM.
Under `COc1ccc2c(c[n+](CC(=O)O)c3c4cc5c(cc4ccc23)OCO5)c1O` stands greater than 24 µM; under `COc1ccc2c(c1O)c(C)[n+](C)c1c3cc4c(cc3ccc21)OCO4`, 2.9 µM.
`COc1ccc2c(c1O)c(-c1ccccc1)[n+](C)c1c3cc4c(cc3ccc21)OCO4` displayed an IC50 of 17 µM.
The result for `C[n+]1cc2c(O)c(OCCO)ccc2c2ccc3cc4c(cc3c21)OCO4` reads 0.52 µM.
For the molecule `COc1ccc2c(c1O)c(C1CC1)[n+](C)c1c3cc4c(cc3ccc21)OCO4`, the IC50 came out at 6.5 µM.
The result for `C[n+]1cc2c(O)c(OCC(N)=O)ccc2c2ccc3cc4c(cc3c21)OCO4` reads 1.9 µM; that for `COc1ccc2c(c[n+](C)c3c4cc5c(cc4ccc23)OCO5)c1O` [FAGARIDINE], 0.32 µM.
